Experimental data from US10227323B2, “Glucosylceramide synthase inhibitors for the treatment of diseases” (BIOMARIN PHARMACEUTICAL INC., priority 2013, dated 2019).

These compounds were tested against T1, GCS (Canis lupus familiaris, UniProt A0A8I3MXG6) (assay: Assay 1: GCS Enzymatic Assay (MDCK cell lysate, C6-NBD-Ceramide, LC/MS)). Settings: Table 2; data marked by *.
T1 sequence (A0A8I3MXG6 1-394): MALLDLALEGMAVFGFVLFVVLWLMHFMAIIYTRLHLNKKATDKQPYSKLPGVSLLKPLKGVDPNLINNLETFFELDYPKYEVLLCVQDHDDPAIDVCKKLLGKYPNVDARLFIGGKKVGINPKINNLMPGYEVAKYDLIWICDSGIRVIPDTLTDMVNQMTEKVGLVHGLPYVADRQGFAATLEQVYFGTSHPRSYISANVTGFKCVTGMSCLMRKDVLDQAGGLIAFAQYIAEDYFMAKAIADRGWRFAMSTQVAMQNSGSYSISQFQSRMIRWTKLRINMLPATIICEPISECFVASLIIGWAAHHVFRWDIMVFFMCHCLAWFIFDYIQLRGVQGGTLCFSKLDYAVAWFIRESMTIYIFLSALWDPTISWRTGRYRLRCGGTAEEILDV
Type: biochemical, canine
Outline: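 LC/MS/MS measurement of glucosylceramide and NBD-ceramide after a 1 h, 37 °C reaction with 100 μM UDP-glucose and 10 μM C6-NBD-ceramide gave IC50s or percent inhibition.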

| SMILES | % inhibition generated from Assay 1 |
| --- | --- |
| O=C(N[C@H](CN1CCC1)[C@H](O)c1ccc(OC2CC2)c(Cl)c1)C(F)(F)c1ccc(-c2ccc(F)cc2)cc1 [Compound 162, N-((1R,2R)-3-(azetidin-1-yl)-1-(3-chloro-4-cyclopropoxyphenyl)-1-hydroxypropan-2-yl)-2,2-difluoro-2-(4′-fluoro-[1,1′-biphenyl]-4-yl)acetamide] | A* (the compound had a % inhibition of a percent inhibition of greater than or equal to about 50%) |
| O=C(N[C@H](CN1CCC1)[C@H](O)c1ccc(OC2CC2)c(Cl)c1)/C(CCc1ccc2ccccc2c1)=N/O [Compound 164, (E)-N-((1R,2R)-3-(azetidin-1-yl)-1-(3-chloro-4-cyclopropoxyphenyl)-1-hydroxypropan-2-yl)-2-(hydroxyimino)-4-(naphthalen-2-yl)butanamide] | A* (the compound had a % inhibition of a percent inhibition of greater than or equal to about 50%) |

Same assay, conditions: Table 2; data without asterisk; read-out: IC50 (nM) generated from Assay 1

| SMILES | IC50 |
| --- | --- |
| O=C(N[C@H](CN1CCC1)[C@H](O)c1cc(F)c2c(c1)OCCO2)C(F)(F)c1ccc(-c2ccc(F)cc2)cc1 [Compound 157, N-((1R,2R)-3-(azetidin-1-yl)-1-(8-fluoro-2,3-dihydrobenzo[b][1,4]dioxin-6-yl)-1-hydroxypropan-2-yl)-2,2-difluoro-2-(4′-fluoro-[1,1′-biphenyl]-4-yl)acetamide] | < 50 nM |
| O=C(N[C@H](CN1CCCC1)[C@H](O)c1cc(F)c2c(c1)OCCO2)/C(=N/O)c1ccc2cc(Cl)ccc2c1 [Compound 158, (E)-2-(6-chloronaphthalen-2-yl)-N-((1R,2R)-1-(8-fluoro-2,3-dihydrobenzo[b][1,4]dioxin-6-yl)-1-hydroxy-3-(pyrrolidin-1-yl)propan-2-yl)-2-(hydroxyimino)acetamide] | < 50 nM |
| O=C(N[C@H](CN1CCCC1)[C@H](O)c1ccc(OC2CC2)c(Cl)c1)C(F)(F)c1ccc(-c2ccc(F)cc2)cc1 [Compound 159, N-((1R,2R)-1-(3-chloro-4-cyclopropoxyphenyl)-1-hydroxy-3-(pyrrolidin-1-yl)propan-2-yl)-2,2-difluoro-2-(4′-fluoro-[1,1′-biphenyl]-4-yl)acetamide] | < 50 nM |
| O=C(N[C@H](CN1CCCC1)[C@H](O)c1ccc2c(c1)OCCO2)C(F)(F)c1ccc(-c2ccc(F)cc2)cc1 [Compound 160, N-((1R,2R)-1-(2,3-dihydrobenzo[b][1,4]dioxin-6-yl)-1-hydroxy-3-(pyrrolidin-1-yl)propan-2-yl)-2,2-difluoro-2-(4′-fluoro-[1,1′-biphenyl]-4-yl)acetamide] | < 50 nM |
| O=C(N[C@H](CN1CCC1)[C@H](O)c1ccc2c(c1)OCCO2)C(F)(F)c1ccc(-c2ccc(F)cc2)cc1 [Compound 161, N-((1R,2R)-3-(azetidin-1-yl)-1-(2,3-dihydrobenzo[b][1,4]dioxin-6-yl)-1-hydroxypropan-2-yl)-2,2-difluoro-2-(4′-fluoro-[1,1′-biphenyl]-4-yl)acetamide] | < 50 nM |
| O=C(N[C@H](CN1CCCC1)[C@H](O)c1ccc(OC2CCOCC2)c(Cl)c1)C(F)(F)c1ccc(-c2ccc(F)cc2)cc1 [Compound 163, N-((1R,2R)-1-(3-chloro-4-((tetrahydro-2H-pyran-4-yl)oxy)phenyl)-1-hydroxy-3-(pyrrolidin-1-yl)propan-2-yl)-2,2-difluoro-2-(4′-fluoro-[1,1′-biphenyl]-4-yl)acetamide] | < 50 nM |
| O=C(N[C@H](CN1CCCC1)[C@H](O)c1ccc2c(c1)OCCO2)C(F)(F)CCc1ccc2c(c1)CCCC2 [Compound 165, N-((1R,2R)-1-(2,3-dihydrobenzo[b][1,4]dioxin-6-yl)-1-hydroxy-3-(pyrrolidin-1-yl)propan-2-yl)-2,2-difluoro-4-(5,6,7,8-tetrahydronaphthalen-2-yl)butanamide] | < 50 nM |
| O=C(N[C@H](CN1CCCC1)[C@H](O)c1ccc(OC2CC2)c(Cl)c1)C(F)(F)CCc1ccc2c(c1)CCCC2 [Compound 166, N-((1R,2R)-1-(3-chloro-4-cyclopropoxyphenyl)-1-hydroxy-3-(pyrrolidin-1-yl)propan-2-yl)-2,2-difluoro-4-(5,6,7,8-tetrahydronaphthalen-2-yl)butanamide] | < 50 nM |
